{"source": "patent US12678425B2", "about": "“Methods for treating against viruses” (Howard University, priority 2019, dated 2026)", "key": {"HEp-2 cells": {"test_system": "HEp-2 cells", "assay": "Trypan blue exclusion cell viability", "assay_type": "cell-based", "conditions": "24-hour treatment", "method": "In order to assess whether the compounds are producing any toxicity that can led to the cell deaths, we evaluated the cell viability by the trypan blue exclusion method. As long-term inhibition of RACK1 expression has been reported to cell cycle arrest, we limited our experimental treatments to 24 h and evaluated the cell viability of almost full confluent cells after 24 h of compound treatment.\nIn table 2, the viability of cells was measured with Trypan blue exclusion assay in a Cellometer (Nexcelom, Lawrence, MA). The percentage survival of the compound treated cells was evaluated along with the DMSO treated cells. The values represent the mean f SE of three separate well based replicates."}, "HSV-1 strain 17": {"test_system": "HSV-1 strain 17", "assay": "Plaque formation unit (pfu) assay in HEp-2 cells", "protocol": "The viral plaque assay was performed as previously described (Tang et al. “Determination of minimum herpes simplex virus type 1 components necessary to localize transcriptionally active DNA to ND10,” J. Virol. 2003; 77:5821-28), with slight modifications. The HSV-1 strain 17 was diluted serially in a volume of 1 mL. Then 300 ul of the virus was added onto confluent HEp-2 cell monolayers in 12-well plates; each dilution had 3 wells. After adsorption for 2 h, the medium was removed and the cells were washed twice with serum-free DMEM and overlaid with phenol-free DMEM containing 5% FCS, 0.5% low-melting point agarose (GIBCO), and 1% penicillin-streptomycin. The cells were incubated at 370 C for 48 hours. Neutral red was added on the agarose to stain the live cells. The plaques were counted and reported as pfu per mL. Mean pfu was determined after averaging the number of pfu from different dilutions."}, "[1]": {"test_system": "RACK1A Y248 phosphorylation", "assay": "Immunoblot of ABA-induced RACK1A Y248 phosphorylation in seedlings", "assay_type": "cell-based, Arabidopsis", "conditions": "10 μM ABA, 12 hours"}, "HSV-1 ICP0 protein": {"test_system": "HSV-1 ICP0 protein", "assay": "Immunofluorescence and confocal microscopy of ICP0 in Hep-2 cells", "assay_type": "cell-based", "conditions": "10 μM, HSV-1 MOI 1.0, 30 h", "method": "The HEp-2 cells were infected with HSV-1 at an MOI of 1.0 for 30 h along with the indicated compounds and control. The cells were fixed with 4% paraformaldehyde and stained with anti-ICPO-FITC in green and DAPI (blue for DNA label in the nucleus). The slides were observed under a Nikon confocal microscope (60× magnification lens) and pictures were taken to show infected cells (green) and total cells (DAPI). All scale bars correspond to 20 μm. The imaging experiments were performed three independent times, and the results as shown are representative of one of three experiments.\nHep-2 cells were grown to about 80% confluency in 12 well plate and the cells were co-infected with HSV-1 at an MOI of 1.0 for 30 h along with the indicated inhibitor compounds and control. The cells were fixed at room temperature with 4% paraformaldehyde-PBS for 15 minutes and then permeabilized at room temperature by 0.5% Triton X-100-PBS (pH 7.4) for 10 min. The cells were then washed 3× with Ice cold PBS. The cells were incubated with 1% BSA, 22.52 mg/mL glycine in PBST (PBS+0.1% Tween 20) for 30 min to block unspecific binding of the antibodies. The cells were incubated in the 1:500 diluted anti-ICP0 antibody in 1% BSA in PBST in a humidified chamber overnight at 4° C. […]"}, "[2]": {"test_system": "Hep-2 cells infected with HSV-1", "assay": "Fluorescence cell sort in Cellometer, HSV-1 infected Hep-2 cells", "assay_type": "cell-based, human", "conditions": "24-h incubation, HSV-1 MOI 1.0", "method": "FIG. 13 depicts the quantification of fluorescent cells by Image based cell sorting in a Cellometer (Nexcelom Vision), based on the experiments depicted in FIG. 12. […] The cells were prepared by immunostaining with ICP0 antibody after 24-h incubation with the indicated compounds. The total cell counts were 1.01×10^6/ml, 4.69×10^6/ml, and 5.36×10^6/ml for DMSO, SD29-14 (10 μM), and SD29-14 (100 μM) respectively. The numbers show the mean f SE of three replicates.\nFluorescence Cell Sort: Hep-2 cells were grown to about 80% confluency in T25 Cell culture flask and were co-infected with HSV-1 at a MOI of 1.0 for 24 h along with the indicated inhibitor compounds and control. After trypsinization, the cells were fixed in 4% paraformaldehyde-PBS. The cells were treated in the same method as described in the immunofluorescence and confocal microscopy method section. The labeled cells were counted in a Nexcelom Vision Cellometer equipped with Brightfield & 2 Fluorescence Channels Filter Set 101: Excitation/Emission Peak: 475 nm/535 nm and Filter Set 202: Excitation/Emission Peak: 525 nm/595 nm. […] Bright-field and fluorescent images were then captured and analyzed at four different locations by the Cellometer image analysis software to directly determine the cell concentration of fluorescently labelled cells. […]"}, "HSV-1": {"test_system": "HSV-1", "assay": "Protection from HSV-1 cytopathic effect in HEp-2 cells (microscopy)", "assay_type": "cell-based", "conditions": "different concentrations, 24 h", "excerpt": "FIG. 15 depicts the results of in vitro testing to confirm the protective effect of a representative compound (SD-29-14) from the cytopathic effect caused by HSV-1. […] After washing away the virus with PBS, images were taken under a compound microscope."}, "Human Annexin A2": {"test_system": "Human Annexin A2", "assay": "LC-MS of Annexin A2 abundance after compound treatment", "assay_type": "cell-based", "set-up": "Annexin A2 fragment abundance: reference not given here", "conditions": "for Abundance ratio 1: SD29-14 over DMSO (10 uM); for Abundance ratio 2: SD29-14 over DMSO (100 uM)", "method": "To further confirm this mechanism of action, LC-MS (Liquid Chromatography-Mass Spectrometry) was conducted to determine the effect of RACK1 inhibition on ANXA2 expression."}, "[3]": {"test_system": "HSV-1 proteins (ICP0, ICP8, gD)", "assay": "Western blot of HSV-1 proteins in pre-treated HEp-2 cells", "assay_type": "cell-based", "conditions": "100 μM, 24 hours pre-treatment, 24 h post infection", "method": "(§1) Panel A of FIG. 8 depicts time and concentration dependent virus protein expression to deduce an optimum drug treatment regimen. […] Tubulin expression was used as the loading control for the blots.\n(§2) Proteins were separated by SDS-PAGE (25 μg loaded in each lane), transferred to nitrocellulose membranes (Amersham Inc., Piscataway, NJ, USA), and blocked with 5% nonfat milk for 60 min at room temperature. Membranes were incubated overnight at 4° C. with primary antibody, followed by incubation with a horseradish peroxidase-coupled secondary antibody and detection with enhanced chemiluminescence (Pierce, Rockford, IL, USA), according to standard methods. Membranes were stripped with stripping buffer (100 mM 2-mercaptoethanol, 2% SDS, 62.5 mM Tris-HCl, pH 6.8), washed with PBS-0.1% Tween-20, and used to detect additional proteins. For Arabidopsis lysates one-week old seedlings were treated with 10 uM of ABA in the presence/absence of the inhibitor compounds for 12 hours in a growth chamber (overnight) at 22° C. mostly in the dark. Lysates were isolated in lysis buffer (Cell Signaling, Danvers, MA) supplemented with plant protease inhibitor (Sigma-Aldrich), phosphatase inhibitor cocktail A and B (Santa Cruz Biotechnology, Dallas, TX), and N-Ethylamaleimide (Sigma-Aldrich, St. Louis, MO). […]"}, "RACK1": {"target": "T1, RACK1 (Homo sapiens, UniProt P63244)", "T1 construct": "endogenous in cells; host or cells: HEp-2 cells (ATCC), infected with HSV-1", "assay": "Western blot of RACK1 in pre-treated, HSV-1 infected HEp-2 cells", "assay_type": "cell-based", "conditions": "100 μM, 24 hours pre-treatment, 24 h post infection", "method": "as §1, §2"}, "RACK1 protein expression": {"test_system": "RACK1 protein expression", "assay": "Immunoblot of RACK1 expression under salt stress", "description": "The abundant leaf protein Rubisco large subunit (RbcL) was used as a loading control for the blot.\nAs the antibody cross-reacts with all three RACK1 isoforms in Arabidopsis, we used the double knockout (rack1ab) as a negative control on the blot (triple mutant is lethal at the early seedling stage). The large subunit of the abundant leaf protein rubisco (RbcL) was used as loading control for this blot."}}, "data": [{"smiles": "COc1ccc(-c2nnc(SCC(=O)O)n2N)cc1", "note": "[SD-29-12]", "values": [{"measurement": "HEp-2 Cell viability, Mean (percentage survival)", "setting": "HEp-2 cells; 10 μM", "value": 92.7, "unit": "%"}, {"measurement": "HEp-2 Cell viability, Mean (percentage survival)", "setting": "HEp-2 cells; 100 μM", "value": 97.7, "unit": "%"}, {"measurement": "Plaque formation unit (pfu)", "setting": "HSV-1 strain 17; 0 hpl", "value": "0 ± 0", "unit": "PFU/mL"}, {"measurement": "Plaque formation unit (pfu)", "setting": "HSV-1 strain 17; 6 hpl", "value": "3.8 ± 0.07 × 10^2 PFU/mL"}, {"measurement": "Plaque formation unit (pfu)", "setting": "HSV-1 strain 17; 12 hpl", "value": "3.6 ± 0.04 × 10^3 PFU/mL"}, {"measurement": "Plaque formation unit (pfu)", "setting": "HSV-1 strain 17; 24 hpl", "value": "2.6 ± 0.03 × 10^6 PFU/mL"}]}, {"smiles": "Nn1c(S)nnc1-c1cc(Cl)cc(Cl)c1", "note": "[SD-29-14]", "values": [{"measurement": "HEp-2 Cell viability, Mean (percentage survival)", "setting": "HEp-2 cells; 10 μM", "value": 97.5, "unit": "%"}, {"measurement": "HEp-2 Cell viability, Mean (percentage survival)", "setting": "HEp-2 cells; 100 μM", "value": 93.7, "unit": "%"}, {"measurement": "ABA-induced RACK1A Y248 phosphorylation", "setting": "[1]", "value": "prevented the ABA-induced Y248 phosphorylation"}, {"measurement": "expression of ICP0 protein (immunofluorescence)", "setting": "HSV-1 ICP0 protein", "value": "effectively eliminated any expression of ICP0 protein"}, {"measurement": "total cell counts", "setting": "[2]; 10 μM", "value": "4.69e+06", "unit": "mL⁻¹"}, {"measurement": "total cell counts", "setting": "[2]; 100 μM", "value": "5.36e+06", "unit": "mL⁻¹"}, {"measurement": "cytopathic effect caused by HSV-1", "setting": "HSV-1", "value": "do not show the cytopathic effect"}, {"measurement": "abundance of human ANXA2", "setting": "Human Annexin A2; LC-MS, SD29-14 treatment", "value": "increased abundance"}, {"measurement": "Annexin A2 fragment abundance", "setting": "Human Annexin A2; fragment DALNIETAIK, 10 uM", "value": 317727.9}, {"measurement": "Annexin A2 fragment abundance", "setting": "Human Annexin A2; fragment DALNIETAIK, 100 uM", "value": 130507.6}, {"measurement": "Abundance ratio 1", "setting": "Human Annexin A2; fragment DALNIETAIK", "value": 7.765}, {"measurement": "Abundance ratio 2", "setting": "Human Annexin A2; fragment DALNIETAIK", "value": 3.19}, {"measurement": "Annexin A2 fragment abundance", "setting": "Human Annexin A2; fragment GVDEVTIVNILTNR, 10 uM", "value": 133381}, {"measurement": "Annexin A2 fragment abundance", "setting": "Human Annexin A2; fragment GVDEVTIVNILTNR, 100 uM", "value": 9540}, {"measurement": "Abundance ratio 1", "setting": "Human Annexin A2; fragment GVDEVTIVNILTNR", "value": ">100"}, {"measurement": "Abundance ratio 2", "setting": "Human Annexin A2; fragment GVDEVTIVNILTNR", "value": ">100"}, {"measurement": "Annexin A2 fragment abundance", "setting": "Human Annexin A2; fragment TNQELQEINR, 10 uM", "value": 462054}, {"measurement": "Annexin A2 fragment abundance", "setting": "Human Annexin A2; fragment TNQELQEINR, 100 uM", "value": 190293}, {"measurement": "Abundance ratio 1", "setting": "Human Annexin A2; fragment TNQELQEINR", "value": 10.502}, {"measurement": "Abundance ratio 2", "setting": "Human Annexin A2; fragment TNQELQEINR", "value": 4.325}]}, {"smiles": "Nn1c(S)nnc1-c1ccc(F)cc1", "note": "[SD-29]", "values": [{"measurement": "HEp-2 Cell viability, Mean (percentage survival)", "setting": "HEp-2 cells; 10 μM", "value": 94.0, "unit": "%"}, {"measurement": "HEp-2 Cell viability, Mean (percentage survival)", "setting": "HEp-2 cells; 100 μM", "value": 92.7, "unit": "%"}, {"measurement": "ABA-induced RACK1A Y248 phosphorylation", "setting": "[1]", "value": "prevented the ABA-induced Y248 phosphorylation"}, {"measurement": "viral protein levels (ICP0, ICP8, gD)", "setting": "[3]", "value": "lower than that of DMSO- or SD-29-12-treated HEp-2 cells"}, {"measurement": "production of RACK1", "setting": "RACK1", "value": "reduced the production of RACK1"}, {"measurement": "Plaque formation unit (pfu)", "setting": "HSV-1 strain 17; 0 hpl", "value": "0 ± 0", "unit": "PFU/mL"}, {"measurement": "Plaque formation unit (pfu)", "setting": "HSV-1 strain 17; 6 hpl", "value": "0 ± 0", "unit": "PFU/mL"}, {"measurement": "RACK1 protein expression under salt stress", "setting": "RACK1 protein expression", "value": "inhibited RACK1 protein expression"}]}]}
